The text below walks through data of patent US20220323795A1, “COMBINATION OF CICLOPIROXOLAMINE AND PIROCTONE OLAMINE FOR COMBATING DANDRUFF” (PIERRE FABRE DERMO-COSMETIQUE, priority 2019, published 2022).

Read-outs that look alike come from different tables or passages of the source. Some results are limits rather than exact numbers.

Experiment [1] relates to M. globosa (IP2387.96). As to the kind of experiment: Minimum inhibitory concentration (MIC) by micromethod in liquid medium. The format is cell-based, Malassezia globosa. Particulars: product alone. Here is the method: (§1) The strains originate from the collection of the Institut Pasteur (Fungi collection, Paris France) for M. globosa (IP2387.96) and from the collection of CBS-KNAW for M. restricta (CBS7877). These strains represent and correspond to the majority of strains involved in dandruff. The strains are incubated for 5 days at 30° C. on modified Dixon agar under aerobic conditions. The inoculation suspensions are prepared in sterile distilled water and are concentrated to 10^7 CFU/ml. The determination of the minimum inhibitory concentration (MIC) is performed by micromethod in a liquid medium. 100 μl of liquid culture medium is deposited in each well of a sterile 96-well microplate. 100 μl of the solutions to be tested is deposited in the first well of a line of the plate. Dilutions by a factor of 2 are then carried out for wells 1 to 10. The test suspensions of each microorganism are prepared immediately before use in Tryptone salt. 100 μl is deposited in each well of a second microplate, with the exception of column 11. All of the first plate is inoculated using a Denley multipoint inoculate, from the second microplate. After incubation, the MIC are defined as the largest dilution with the absence of visible growth. Columns 11 and 12 serve respectively as a negative and positive control for growth.
(§2) The products tested are: • ciclopiroxolamine, at 3% (wt/wt) with sterile distilled water, • piroctone olamine at 0.3% (wt/wt) with 10% ethanol, • ketoconazole (positive control) at 1000 μg/ml (wt/wt) with 10% DMSO, • piroctone olamine/ciclopiroxolamine combinations, with respective concentrations of 0.15% and 0.75%.
(§3) The solutions are prepared at the time of the test and used immediately. An ethanol control was produced, solution at 10%.
(§4) The synergistic effect of two products is determined by calculating the synergy index (FIC, Fractional Inhibitory Concentration).
(§5) FIC Index=(MIC product A combined)/(MIC product alone)+(MIC product B combined)/(MIC product B alone).
(§6) The maximum test concentration corresponds to the concentration of the parent solution/2.

In experiment [2] the test system is M. globosa (IP2387.96). As to the kind of experiment: Minimum fungicide concentration (MFC) by subculturing the MIC microplates on agar medium. The experiment is classed as cell-based, Malassezia globosa. To be noted: product alone. Here is the method:
as §1, §2
(§7) The determination of the minimum fungicide concentrations (MFC) is carried out by subculturing the MIC microplates on agar medium, using the Denley multipoint inoculator. After incubation, the MFC are defined as the largest dilution with the absence of visible growth. All the tests were carried out in duplicate.

For experiment [3], the system named is M. restricta (CBS7877). As to the kind of experiment: Minimum inhibitory concentration (MIC) by micromethod in liquid medium. The format is cell-based, Malassezia restricta. Here is the method:
as §1, §2, §3, §4, §5, §6

Experiment [4] concerns M. restricta (CBS7877). As to the kind of experiment: Minimum fungicide concentration (MFC) by subculturing the MIC microplates on agar medium. The experiment is classed as cell-based, Malassezia restricta. Here is the method:
as §1, §2, §7

For experiment [5], the system named is Malassezia globosa. As to the kind of experiment: Fungicidal activity, log reduction of colonies after contact time. The experiment is classed as cell-based. Particulars: PO 0.3%, CPO 1.5%, ketoconazole 2%, PO/CPO 0.3%/1.5%, 10^7 CFU/ml. As to the method: (§8) The products to be tested alone and combined at the defined concentrations are placed in contact with a suspension of Malassezia containing 10^7 CFU/ml for a contact time of 5 minutes, 15 minutes and 30 minutes. After each contact time, a sample is taken, then diluted and filtered on a cellulose membrane. Each membrane is then deposited on the agar medium (Dixon) and incubated at 30° C. After incubation, the colonies are counted.
(§9) The products tested are: • ciclopiroxolamine, at 1.5% (wt/wt) diluted with sterile distilled water, • piroctone olamine at 0.3% (wt/wt) dissolved in ethanol, then addition of water for injectable preparations (final ethanol concentration of 9%), • ketoconazole (positive control) at 2% (wt/wt) dissolved in DMSO, then addition of water for injectable preparations (final concentration of DMSO 9%). • piroctone olamine/ciclopiroxolamine combinations, with respective concentrations of 0.3% and 1.5%.
(§10) The solutions are prepared at the time of the test and used immediately.

Experiment [6] concerns Malassezia restricta. The description is as above. The format is cell-based. To be noted: PO 0.3%, CPO 1.5%, ketoconazole 2%, PO/CPO 0.3%/1.5%, 10^7 CFU/ml. Here is the method:
as §8, §9, §10

Where [7] appears, read: Malassezia globosa, read-out: MIC.
Setting [8] is: Malassezia globosa, read-out: MFC.
Setting [9] is: Malassezia restricta, CBS7877, product alone, read-out: MIC.
The mark [10] stands for this setting: Malassezia restricta, CBS7877, product alone, read-out: MFC.

The term MIC denotes the smallest concentration in the dilution series that meets the test's criterion for growth inhibition. Broadly, the MFC is the lowest tested concentration that kills the fungus rather than only halting it.

Turning to `Cc1cc(C2CCCCC2)n(O)c(=O)c1` [CPO, ciclopiroxolamine], the MIC in experiment [1] (setting [7]) is 29 µg/mL; in experiment [1] (% (wt/wt)) it was 2.9 × 10^−3%; in experiment [3] (setting [9]), 15 µg/mL; in experiment [3] (product alone, % (wt/wt)), 1.5 × 10^−3%. The MFC is 29 µg/mL in experiment [2] (setting [8]); 2.9 × 10^−3% in experiment [2] (% (wt/wt)); 15 µg/mL in experiment [4] (setting [10]); 1.5 × 10^−3% in experiment [4] (product alone, % (wt/wt)). The “Log Reduction” value was 2.45 in experiment [5] (contact time 5 minutes); 3.88 in experiment [5] (contact time 15 minutes); above 4.22 in experiment [5] (contact time 30 minutes); 1.99 in experiment [6] (contact time 5 minutes); 3.3 in experiment [6] (contact time 15 minutes); above 4.17 in experiment [6] (contact time 30 minutes).
For the compound `CC(=O)N1CCN(c2ccc(OCC3COC(Cn4ccnc4)(c4ccc(Cl)cc4Cl)O3)cc2)CC1` (centres unmarked) [Keto, ketoconazole], the MIC amounted to 0.98 µg/mL in experiment [1] (setting [7]) and 0.49 µg/mL in experiment [3] (setting [9]). Also, the MFC is 1.94 µg/mL in experiment [2] (setting [8]) and 0.49 to 0.98 µg/mL in experiment [4] (setting [10]). Also, the “Log Reduction” value is 1.47 in experiment [5] (contact time 5 minutes); 1.29 in experiment [5] (contact time 15 minutes); 1.19 in experiment [5] (contact time 30 minutes); 0.85 in experiment [6] (contact time 5 minutes); 1.12 in experiment [6] (contact time 15 minutes); 1.09 in experiment [6] (contact time 30 minutes).
As for `Cc1cc(CC(C)CC(C)(C)C)n(O)c(=O)c1.NCCO` (centres unmarked) [PO, piroctone olamine], the MIC in experiment [1] is 23 µg/mL; in experiment [1] (% (wt/wt)) it was 2.3 × 10^−3%; in experiment [3] (product alone), 23 µg/mL; in experiment [3] (product alone, % (wt/wt)), 2.3 × 10^−3%. The MFC in experiment [2] is 23 µg/mL; in experiment [2] (% (wt/wt)), 2.3 × 10^−3%; in experiment [4] (product alone), 23 µg/mL; in experiment [4] (product alone, % (wt/wt)), 2.3 × 10^−3%. Besides, the “Log Reduction” value in experiment [5] (contact time 5 minutes) is on record as 0.36; in experiment [5] (contact time 15 minutes), 0.61; in experiment [5] (contact time 30 minutes), 1.24; in experiment [6] (contact time 5 minutes), 1.19; in experiment [6] (contact time 15 minutes) it was 1.28; in experiment [6] (contact time 30 minutes), 1.73.
